# Test results from US7741520B2, “Sulfonanilide analogs as selective aromatase modulators (SAMs)” (The Ohio State University Research Foundation, priority 2006, dated 2010).
# Legend:
# [1] = system: aromatase activity in SK-BR-3 breast cancer cells; assay: Aromatase tritiated water-release assay in SK-BR-3 cell lines (first compound set); type: cell-based, human; details: SK-BR-3 cells, 24 h treatment; five concentrations, each in triplicate; read-out: IC50 (μM), suppression of aromatase activity in SK-BR-3 breast cancer cells
# Protocol: Aromatase Tritiated Water-Release Assay in SK-BR-3 Cell Lines. SK-BR-3 cells were obtained from ATCC (Rockville, Md.). Cell cultures were maintained in phenol red-free custom media (MEM, Earle's salts, 1.5× amino acids, 2× nonessential amino acids, L-glutamine, 1.5× vitamins, Gibco BRL) supplemented with 10% fetal bovine serum (FBS), 2 mM L-glutamine, and 20 mg/L gentamycin. Measurement of aromatase enzyme activity was based on the tritium water release assay. 24 Cells in 100 mm Petri dish were treated with 0.1% DMSO (control), and inhibitors at the indicated concentrations. After 24 h, the media was changed and the cells were incubated with 100 nM [1â-3H]-androst-4-ene-3,17-dione ([…]) for 3 h. Subsequently, the reaction mixture was removed, and proteins were precipitated using 10% trichloroacetic acid at 42° C. for 20 min. After a brief centrifugation, the media was extracted three times with an equal amount of chloroform to extract unused substrate and further dextran-treated charcoal. After centrifugation, a 250-μL aliquot containing the product was counted in 5 mL of liquid scintillation mixture. Results were corrected for blanks and for the cell contents of culture flasks, and results were expressed as picomoles of 3H2O formed per hour incubation time per million live cells (pmol/h/10^6 cells). To determine the amount of cells in each flask, the cells were trypsinized and analyzed using the diphenylamine DNA assay adapted to a 96-well plate. (Natarajan N.; Shambaugh, G. E., 3rd; Elseth K. M.; Haines G. K.; Radosevich J. A. Adaptation of the diphenylamine (DPA) assay to a 96-well plate tissue culture format and comparison with the MTT assay. Biotechniques 1994, 17, 166-171; incorporated herein by reference). IC50 sigmoidal dose-response data were analyzed with Microsoft Excel and the Graphpad Prism (Version 3.0) program.
# [2] = system: CYP19 mRNA expression in SK-BR-3 cells; assay: CYP19 mRNA expression by real-time RT-PCR in SK-BR-3 cells; type: cell-based, human; details: 5 μM, 24 h (FIG. 14)
# Protocol: (§1) RNA Extraction. Total RNA was isolated using the TRIzol reagent according to the manufacturer's protocol. Total RNA pellets were dissolved in DNase- and RNase-free water and quantitated using a spectrophotometer. The quality of RNA samples was determined by electrophoresis through agarose gels and staining with ethidium bromide; the 18S and 28S rRNA bands were visualized under ultraviolet light.
# (§2) cDNA Synthesis. Isolated total RNA (2 μg) was treated with DNase I Amplification grade, according to the recommended protocol to eliminate any DNA before reverse transcription. Treated total RNA was denatured at 65° C. for 5 min in the presence of 2.5 ng/μL random hexamers and 0.5 mM dNTP mix. The samples were snap-cooled on ice and centrifuged briefly. Complementary DNA (cDNA) was synthesized using Superscript II reverse transcriptase according to the recommended protocol. Briefly, the reactions were conducted in the presence of 1× First-Strand Buffer and 20 mM DTT at 42° C. for 50 min and consequently inactivated at 70° C. for 15 min. The cDNA generated was used as a template in realtime PCR reactions.
# Real-Time PCR. Real-time PCR was performed using the Opticon 2 system from MJ Research (Waltham, Mass.). For the CYP19 total gene the PCR reaction mixture consisted of Taqman Universal PCR Master Mix (Applied Biosystems), 600 nM of CYP19 primer (sense: 5′-TGTCTCTTTGTTCTTCATGCTATTTCTC-3′ (SEQ ID NO: 1); antisense: 5′-TCACCAATAACAGTCTGGATTTCC-3′) (SEQ ID NO: 2); 250 nM Taqman probe (6FAM 5′-TGCAAAGCACCCTAATGTTGAAGAGGCAAT-3′TAMRA) (SEQ ID NO: 3) (Invitrogen), 18S rRNA (Applied Biosystems, Foster City, Calif.), and 2.0 μL of each RT sample in a final volume of 20 μL. The Taqman probe was designed to anneal to a specific sequence of the aromatase gene between the forward and the reverse primers. Cycling conditions were 50° C. for 2 mm and 95° C. for 10 mm, followed by 50 cycles at 95° C. for 15 s and 60° C. for 1 mm.
# as §1, with “extraction.” for “Extraction.”, “DNase,” for “DNase- and”
# as §2, with “synthesis.” for “Synthesis.”, “real-time” for “realtime”
# Real-time PCR. Real-time PCR was performed using the Opticon™ 2 system from MJ Research (Waltham, Mass.). For the CYP19 total gene the PCR reaction mixture consisted of Taqman® Universal PCR Master Mix (Applied Biosystems), 600 nM of CYP19 primer (sense: 5′-TGTCTCTTTGTTCTTCATGCTATTTCTC-3′ (SEQ ID NO: 1); antisense: 5′-TCACCAATAACAGTCTGGATTTCC-3′) (SEQ ID NO: 2); 250 nM Taqman probe (6FAM 5′-TGCAAAGCACCCTAATGTTGAAGAGGCAAT-3′TAMRA) (SEQ ID NO: 3) (Invitrogen), and 2.0 μL of each cDNA sample in a final volume of 20 μL. […]
# [3] = molecular target: T1, aromatase activity in JAR choriocarcinoma placental cells (Homo sapiens, UniProt P11511); assay: Tritiated water-release assay in JAR cells; type: cell-based; details: 24 h, 15 μM (FIG. 11), read-out: decrease of aromatase activity in JAR cells
# T1 construct: JAR choriocarcinoma placental cells (which produce aromatase expression from promoter I.1 mediated by protein kinase C); host or cells: JAR
# T1 sequence (P11511 1-503): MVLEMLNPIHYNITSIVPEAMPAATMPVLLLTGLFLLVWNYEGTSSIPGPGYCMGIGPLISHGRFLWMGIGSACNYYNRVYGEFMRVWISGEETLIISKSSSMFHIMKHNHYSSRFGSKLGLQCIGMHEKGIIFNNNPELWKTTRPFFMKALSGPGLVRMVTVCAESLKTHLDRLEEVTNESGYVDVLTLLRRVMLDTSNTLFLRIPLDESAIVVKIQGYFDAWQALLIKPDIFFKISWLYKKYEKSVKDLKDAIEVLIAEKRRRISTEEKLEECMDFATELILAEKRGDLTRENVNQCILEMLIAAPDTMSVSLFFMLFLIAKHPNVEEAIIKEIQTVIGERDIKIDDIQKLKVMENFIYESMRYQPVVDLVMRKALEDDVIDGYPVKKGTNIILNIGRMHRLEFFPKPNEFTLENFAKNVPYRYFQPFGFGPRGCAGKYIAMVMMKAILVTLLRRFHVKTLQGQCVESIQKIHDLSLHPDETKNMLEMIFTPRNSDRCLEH
# Protocol: Cell Culture. AR and SK-BR-3 cells were obtained from ATCC (Rockville, Md.). SK-BR-3 cells were maintained in phenol red-free custom media (MEM, Earle's salts, 1.5× amino acids, 2× non-essential amino acids, L-glutamine, 1.5× vitamins, Gibco BRL) supplemented with 10% fetal bovine serum (FBS), 2 mM L-glutamine and 20 mg/L gentamycin. JAR cells were maintained in RPMI 1640 medium with 2 mM L-glutamine adjusted to contain 1.5 g/L sodium bicarbonate, 4.5 g/L glucose, 10 mM HEPES, and 1.0 mM sodium pyruvate, 90%; FBS, 10%. Fetal bovine serum was heat inactivated for 30 min in a 56° C. water bath before use. Cell cultures were grown at 37° C., in a humidified atmosphere of 5% CO2 in a Hereaus CO2 incubator. For all experiments, cells were plated in 6 well plates and grown to subconfluency. Before treatment, the media was changed to a defined one containing DMEM/F12 media (Sigma) with 1.0 mg/mL human albumin (OSU Hospital Pharmacy), 5.0 mg/L human transferin and 5.0 mg/L bovine insulin.
# Tritiated water-release assay in JAR and SK-BR-3 cell lines. Measurement of aromatase enzyme activity was based on the tritium water release assay. Cells in six well plates were treated with 0.1% DMSO (control), and inhibitors at the indicated concentrations. After 24 hours, the cells were incubated 3 hours (SK-BR-3 cells) or 1 hour (JAR cells) with fresh media along with 100 nM [1β-^3H]-androst-4-ene-3,17-dione (1 μCi). Subsequently, the reaction mixture was removed, and proteins were precipitated using 10% trichloroacetic acid at 42° C. for 20 min. After a brief centrifugation, the media was extracted three times with an equal amount of chloroform to remove remaining substrate and further treated with dextran-treated charcoal. After centrifugation, a 250-μl aliquot containing the product was counted in 5 ml of liquid scintillation mixture. Results were corrected for blanks and for the cell contents of culture flasks, and results were expressed as picomoles of ^3H2O formed per hour incubation time per million live cells (pmol/h/10^6 cells). To determine the amount of cells in each flask, the cells were lysed and analyzed using the diphenylamine DNA assay adapted to a 96-well plate. IC50 sigmoidal dose-response data were analyzed with Microsoft Excel and the Graphpad Prism (Version 3.0) program.
# Diphenylamine DNA Assay To determine the amount of viable cells in each flask, the cells were lysed with 0.5N NaOH aqueous solution and analyzed using the diphenylamine DNA assay adapted to a 96-well plate. DNA standards (0-30 μg) were prepared using double-stranded DNA reconstituted in PBS and added in triplicates directly to the wells. A uniform cell suspension was prepared from the 6 well plate in 300 μl 0.5N NaOH aqueous solution, and 60 μl of the unknown samples were added in triplicates to separate wells. A solution of 0.16% acetaldehyde in water was prepared and mixed at a 1:5 ratio with perchloric acid (20% vol/vol). This solution (60 μl) was added to each well along with 100 μl of a 4% diphenylamine solution in glacial acetic acid. The plates were incubated at 37° C. for 24 hours. After centrifugation, 100 μl supernatant of each well was transferred to a new 96 well plate, and the OD595 was measured using a microplater reader. The DNA concentration was determined by extrapolation to the standard curve and the amount of cells/well was calculated using the equation: 1 cell≈7 pg DNA.
SMILES,IC50 [1] [µM],melting point [°C],inhibition at 15 µM [3] [%],CYP19 gene expression [2]
"CCCCCCCCCOc1cc([N+](=O)[O-])ccc1N(C)S(C)(=O)=O [Compound 23, N-Methyl-N-(2-nonyloxy-4-nitrophenyl)methanesulfonamide]",3.96,83 to 84,–,–
"CCCCCCOc1cc([N+](=O)[O-])ccc1N(C)S(C)(=O)=O [Compound 24, N-Methyl-N-(2-hexyloxy-4-nitrophenyl)methanesulfonamide]",4.49,44 to 46,–,–
"CC(C)Oc1cc([N+](=O)[O-])ccc1NS(C)(=O)=O [Compound 10, N-(2-Isopropyloxy-4-nitrophenyl)methanesulfonamide]",5.87,128 to 131,–,–
"COc1cc([N+](=O)[O-])ccc1NS(C)(=O)=O [Compound 16, N-(2-Methoxy-4-nitrophenyl)methanesulfonamide]",> 25,128 to 130,–,–
"COc1cc([N+](=O)[O-])ccc1N(C)S(C)(=O)=O [Compound 25, N-Methyl-N-(2-methoxy-4-nitrophenyl)methanesulfonamide]",> 25,125 to 126,–,–
"CS(=O)(=O)Nc1ccc([N+](=O)[O-])cc1OCCc1ccccc1 [Compound 37b, N-(2-phenylethoxy 4-nitrophenyl) methanesulfonamide]",–,–,–,not affect the CYP19 gene expression
"CC(C)Oc1cc([N+](=O)[O-])ccc1N(C)S(C)(=O)=O [Compound 19, N-Methyl-N-(2-isopropyloxy-4-nitrophenyl)methanesulfonamide]",2.81,99 to 100,–,–
"CN(c1ccc([N+](=O)[O-])cc1OCc1cccc2ccccc12)S(C)(=O)=O [Compound 38c, N-methyl-N-[2-(α-naphthylmethoxy) 4-nitrophenyl]methanesulfonamide]",–,163 to 165,< 50,–

# Second part, led by results:
IC50 [1] [µM],melting point [°C],inhibition at 15 µM [3] [%],SMILES,CYP19 gene expression [2]
0.76,66 to 69,–,"CCCOc1cc([N+](=O)[O-])ccc1N(C)S(C)(=O)=O [Compound 18, N-Methyl-N-(2-propyloxy-4-nitrophenyl)methanesulfonamide]",–
0.91,70 to 71,–,"CCCCCCCCCOc1cc([N+](=O)[O-])ccc1NS(C)(=O)=O [Compound 14, N-(2-Nonyloxy-4-nitrophenyl)methanesulfonamide]",–
2.51,117 to 119,–,"CCCOc1cc([N+](=O)[O-])ccc1NS(C)(=O)=O [Compound 9, N-(2-Propyloxy-4-nitrophenyl)methanesulfonamide]",–
2.67,74 to 76,–,"CCCCCCOc1cc([N+](=O)[O-])ccc1NS(C)(=O)=O [Compound 15, N-(2-Hexyloxy-4-nitrophenyl)methanesulfonamide]",–
